One test deals with BCL2 WT (Homo sapiens (Human), UniProt P10415). As to the kind of experiment: TR-FRET competitive binding assay, BCL2 WT. Conditions: Ki determined from IC50, read-out: TR_FRET EKI_Bcl2 WT. In outline: (§1)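 Ki derived from IC50 (11-point dilution, 520/495 nm emission ratio) for displacing a fluorescein-labelled PUMA peptide (2 or 20 nM). Target was 0.5 nM E. coli-expressed Halo-tagged BCL2 (1-207) or BCLXL (2-196), terbium-labelled on Halo. Incubation 2 h at 23°C in pH 7.5 Hepes with 150 mM NaCl and 5% DMSO.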
(In general: TR-FRET usually uses a lanthanide donor and a delayed reading to cut background.)

Another test concerns the target BCL2 D103Y (Homo sapiens, UniProt P10415, D103Y). As to the kind of experiment: TR-FRET competitive binding assay, BCL2 D103Y. Conditions: Ki determined from IC50, read-out: TR_FRET EKI_Bcl2 D103Y. In outline: as §1
The test system of another test is KMS-12-PE Bcl-2 WT. The test is described as follows: In vitro cytotoxicity CellTiter-Glo 48 h, KMS-12-PE Bcl-2 WT. It is filed as cell-based. Conditions: Homo sapiens, KMS-12-PE, C50 = concentration needed to reach 50% of the cellular viability. A digest of the protocol: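 Potency is expressed as C50, the compound concentration at which viability of engineered KMS-12-PE cells (Bcl-2 wild type or G101V) falls to 50%, determined from CellTiter-Glo luminescence after 48 h of treatment over 11 concentrations.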
(In ATP-based viability assays light output follows the ATP content of the culture.)

Another test has as its target BCLXL WT (Homo sapiens (Human), UniProt Q07817). The test is described as follows: TR-FRET competitive binding assay, BCLXL WT. Conditions: for Ki: BCLXL WT, Ki determined from IC50, read-out: TR_FRET EKI BclxL; for TR_FRET EKI BCLxL/WT selectivty ratio: ratio Ki BCLxL / Ki BCL2 WT. A digest of the protocol:
as §1

Test [1] has as its target BCL2 G101V (Homo sapiens, UniProt P10415, G101V). The test is described as follows: TR-FRET competitive binding assay, BCL2 G101V. Conditions: BCL2 G101V; Ki determined from IC50; read-out: TR_FRET EKI_Bcl2 G101V. A digest of the protocol:
as §1

Test [2] has as its system BCL2 G101V. The test is described as follows: TR-FRET competitive binding assay, BCL2 G101V. On the set-up: species or system human. Conditions: ratio Ki BCL2 G101V / Ki BCL2 WT. In outline: as §1

Broadly, the IC50 is the midpoint of a concentration-inhibition curve. Read a low IC50 as higher potency.

BCLXL WT, sequence (Q07817 other isoform, or with tags, fused parts or gaps): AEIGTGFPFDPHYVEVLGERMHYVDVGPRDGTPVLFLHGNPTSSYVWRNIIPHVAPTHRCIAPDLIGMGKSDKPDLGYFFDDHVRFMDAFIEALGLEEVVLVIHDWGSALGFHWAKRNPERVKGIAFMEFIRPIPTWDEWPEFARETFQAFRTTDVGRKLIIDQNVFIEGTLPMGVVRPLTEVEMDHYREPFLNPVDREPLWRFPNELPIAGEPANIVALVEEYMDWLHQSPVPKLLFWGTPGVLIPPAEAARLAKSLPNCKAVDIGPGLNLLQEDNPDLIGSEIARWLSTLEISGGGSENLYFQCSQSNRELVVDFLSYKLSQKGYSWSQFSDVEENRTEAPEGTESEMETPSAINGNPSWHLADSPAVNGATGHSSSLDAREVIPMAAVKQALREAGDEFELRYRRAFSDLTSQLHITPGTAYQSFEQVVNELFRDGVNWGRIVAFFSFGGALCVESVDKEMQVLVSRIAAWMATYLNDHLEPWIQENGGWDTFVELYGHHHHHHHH

As to `Cc1c(N(C(=O)c2cc(-c3cc4c(cc3C(=O)N3Cc5ccccc5C[C@H]3C)CN(C(=O)Cc3ccc(OCCN(C)C)cc3F)CC4)n(C)c2C)c2ccccc2)cc(C#N)n1C` [Example 213, N-(5-cyano-1,2-dimethyl-pyrrol-3-yl)-5-[2-[2-[4-[2-(dimethylamino)ethoxy]-2-fluoro-phenyl]acetyl]-7-[(3R)-3-methyl-3,4-dihydro-1H-isoquinoline-2-carbonyl]-3,4-dihydro-1H-isoquinolin-6-yl]-1,2-dimethyl-N-phenyl-pyrrole-3-carboxamide], the Ki at BCL2 WT is 0.01 nM; on BCL2 D103Y, 0.03 nM; at BCLXL WT, 1 nM; on BCL2 G101V [1], 0.4 nM. The same compound registered an IC50 in the test with KMS-12-PE Bcl-2 WT of 0.0053 µM. For the same compound, the “TR_FRET EKI BCLxL/WT selectivty ratio” value on BCLXL WT was 108.9. Besides, the “TR_FRET EKI G101V/WT selectivty ratio” value with BCL2 G101V [2] stood at 46.6.
As to `Cc1c(C(=O)N(c2ccccc2)c2cc(C#N)n(C(F)F)c2C)cc(-c2cc3c(cc2C(=O)N2Cc4ccccc4C[C@H]2C)CN(C(=O)Cc2ccc(OCCN4CCOCC4)cc2)CC3)n1C` [Example 214, N-[5-cyano-1-(difluoromethyl)-2-methyl-pyrrol-3-yl]-1,2-dimethyl-5-[7-[(3R)-3-methyl-3,4-dihydro-1H-isoquinoline-2-carbonyl]-2-[2-[4-(2-morpholinoethoxy)phenyl]acetyl]-3,4-dihydro-1H-isoquinolin-6-yl]-N-phenyl-pyrrole-3-carboxamide], the Ki came to 0.05 nM on BCL2 WT, 0.12 nM at BCL2 D103Y, 8.6 nM at BCLXL WT and 0.7 nM on BCL2 G101V [1]. In the test on KMS-12-PE Bcl-2 WT, this compound returned an IC50 of 0.0035 µM. In addition, at BCLXL WT, the “TR_FRET EKI BCLxL/WT selectivty ratio” value was 168.6. The “TR_FRET EKI G101V/WT selectivty ratio” value in the test with BCL2 G101V [2] came out at 13.3.
As for `Cc1c(N(C(=O)c2cc(-c3cc4c(cc3C(=O)N3Cc5ccccc5C[C@H]3C)CN(C(=O)Cc3ccc(OCCN5CCOCC5)cc3)CC4)n(C)c2C)c2ccccc2)cnn1C(F)F` [Example 215, N-[1-(difluoromethyl)-5-methyl-pyrazol-4-yl]-1,2-dimethyl-5-[7-[(3R)-3-methyl-3,4-dihydro-1H-isoquinoline-2-carbonyl]-2-[2-[4-(2-morpholinoethoxy)phenyl]acetyl]-3,4-dihydro-1H-isoquinolin-6-yl]-N-phenyl-pyrrole-3-carboxamide], the Ki turned out to be 0.06 nM at BCL2 WT, 0.13 nM at BCL2 D103Y, 16 nM at BCLXL WT and 4.6 nM on BCL2 G101V [1]. 0.0147 µM corresponded to half-maximal inhibition in the test on KMS-12-PE Bcl-2 WT (IC50). On BCLXL WT, the “TR_FRET EKI BCLxL/WT selectivty ratio” value is reported as 280.7. For the same compound, in the test with BCL2 G101V [2], the “TR_FRET EKI G101V/WT selectivty ratio” value was 80.9.
For the compound `Cc1c(C(=O)N(c2ccccc2)c2cnn(C)c2)cc(-c2cc3c(cc2C(=O)N2Cc4ccccc4C[C@H]2C)CN(C(=O)Cc2cccc(C4CCN(C)CC4)c2)CC3)n1C` [Example 216, 1,2-dimethyl-5-[7-[(3R)-3-methyl-3,4-dihydro-1H-isoquinoline-2-carbonyl]-2-[2-[3-(1-methyl-4-piperidyl)phenyl]acetyl]-3,4-dihydro-1H-isoquinolin-6-yl]-N-(1-methylpyrazol-4-yl)-N-phenyl-pyrrole-3-carboxamide], the Ki at BCL2 WT stood at 0.05 nM; at BCL2 D103Y, 0.33 nM; at BCLXL WT, 2.6 nM; on BCL2 G101V [1] it was 6.4 nM. In addition, the half-inhibitory concentration (IC50) in the test with KMS-12-PE Bcl-2 WT was found to be 0.0449 µM. In addition, the “TR_FRET EKI BCLxL/WT selectivty ratio” value at BCLXL WT turned out to be 50.1. The “TR_FRET EKI G101V/WT selectivty ratio” value in the test on BCL2 G101V [2] is 125.5.
Turning to `Cc1c(C(=O)N(c2ccccc2)c2cnn(C)c2)cc(-c2cc3c(cc2C(=O)N2Cc4ccccc4C[C@H]2C)CN(C(=O)Cc2cccc(N4CC5(CN(C)C5)C4)c2)CC3)n1C` [Example 217, 1,2-dimethyl-5-[2-[2-[3-(6-methyl-2,6-diazaspiro[3.3]heptan-2-yl)phenyl]acetyl]-7-[(3R)-3-methyl-3,4-dihydro-1H-isoquinoline-2-carbonyl]-3,4-dihydro-1H-isoquinolin-6-yl]-N-(1-methylpyrazol-4-yl)-N-phenyl-pyrrole-3-carboxamide], the Ki worked out at 0.02 nM on BCL2 WT, 0.09 nM on BCL2 D103Y, 0.6 nM on BCLXL WT and 2 nM on BCL2 G101V [1]. Moreover, the midpoint of inhibition in the test on KMS-12-PE Bcl-2 WT, the IC50, lay at 0.0453 µM. Besides, the “TR_FRET EKI BCLxL/WT selectivty ratio” value at BCLXL WT is given as 24.9. Further, in the test on BCL2 G101V [2], the “TR_FRET EKI G101V/WT selectivty ratio” value worked out at 88.7.
Take `Cc1c(C(=O)N(c2ccccc2)c2cccc(C#N)c2)cc(-c2cc3c(cc2C(=O)N2Cc4ccccc4C[C@H]2C)CN(C(=O)Cc2ccc(OCCN4CCOCC4)cc2)CC3)n1C` [Example 218, N-(3-cyanophenyl)-1,2-dimethyl-5-[7-[(3R)-3-methyl-3,4-dihydro-1H-isoquinoline-2-carbonyl]-2-[2-[4-(2-morpholinoethoxy)phenyl]acetyl]-3,4-dihydro-1H-isoquinolin-6-yl]-N-phenyl-pyrrole-3-carboxamide]: the Ki at BCL2 WT came to 0.03 nM; at BCL2 D103Y, 0.08 nM; on BCLXL WT, 13.8 nM; at BCL2 G101V [1], 1.5 nM. This compound also gave an IC50 in the test on KMS-12-PE Bcl-2 WT of 0.0142 µM. In addition, the “TR_FRET EKI BCLxL/WT selectivty ratio” value at BCLXL WT came out at 418.1. Further, in the test with BCL2 G101V [2], the “TR_FRET EKI G101V/WT selectivty ratio” value turned out to be 45.3.
For `COc1ncc(N(C(=O)c2cc(-c3cc4c(cc3C(=O)N3Cc5ccccc5C[C@H]3C)CN(C(=O)Cc3ccc(OCCN(C)C)cc3F)CC4)n(C)c2C)c2ccccc2)cc1F` [Example 219, 5-[2-[2-[4-[2-(dimethylamino)ethoxy]-2-fluoro-phenyl]acetyl]-7-[(3R)-3-methyl-3,4-dihydro-1H-isoquinoline-2-carbonyl]-3,4-dihydro-1H-isoquinolin-6-yl]-N-(5-fluoro-6-methoxy-3-pyridyl)-1,2-dimethyl-N-phenyl-pyrrole-3-carboxamide], the Ki on BCL2 WT was 0.05 nM; at BCL2 D103Y, 0.13 nM; at BCLXL WT it was 2.9 nM; at BCL2 G101V [1], 4.6 nM. Further, in the test with KMS-12-PE Bcl-2 WT, the IC50 stood at 0.131 µM. For the same compound, the “TR_FRET EKI BCLxL/WT selectivty ratio” value on BCLXL WT amounted to 57.8. Further, the “TR_FRET EKI G101V/WT selectivty ratio” value in the test on BCL2 G101V [2] came to 89.8.
On to `Cc1c(C(=O)N(c2ccccc2)c2ccnn2C)cc(-c2cc3c(cc2C(=O)N2Cc4ccccc4C[C@H]2C)CN(C(=O)Cc2ccc(OCCN4CCOCC4)cc2)CC3)n1C` [Example 220, 1,2-dimethyl-5-[7-[(3R)-3-methyl-3,4-dihydro-1H-isoquinoline-2-carbonyl]-2-[2-[4-(2-morpholinoethoxy)phenyl]acetyl]-3,4-dihydro-1H-isoquinolin-6-yl]-N-(2-methylpyrazol-3-yl)-N-phenyl-pyrrole-3-carboxamide], for which the Ki on BCL2 WT stood at 0.13 nM; at BCL2 D103Y, 0.37 nM; on BCLXL WT, 42.3 nM; on BCL2 G101V [1] it was 14.3 nM. For the same compound, the IC50 in the test with KMS-12-PE Bcl-2 WT worked out at 0.0907 µM. For the same compound, the “TR_FRET EKI BCLxL/WT selectivty ratio” value on BCLXL WT was 325.6. Further, in the test on BCL2 G101V [2], the “TR_FRET EKI G101V/WT selectivty ratio” value was 109.9.
For the compound `Cc1nn(C)cc1N(C(=O)c1cc(-c2cc3c(cc2C(=O)N2Cc4ccccc4C[C@H]2C)CN(C(=O)Cc2ccc(OCCN(C)C)cc2)CC3)n(C)c1C)c1ccccc1` [Example 221, 5-[2-[2-[4-[2-(dimethylamino)ethoxy]phenyl]acetyl]-7-[(3R)-3-methyl-3,4-dihydro-1H-isoquinoline-2-carbonyl]-3,4-dihydro-1H-isoquinolin-6-yl]-N-(1,3-dimethylpyrazol-4-yl)-1,2-dimethyl-N-phenyl-pyrrole-3-carboxamide], the Ki is 0.24 nM at BCL2 WT, 0.53 nM on BCL2 D103Y, 28.3 nM on BCLXL WT and 19.1 nM on BCL2 G101V [1]. In the test on KMS-12-PE Bcl-2 WT, this compound yielded a 50% inhibitory concentration (IC50) of 0.121 µM. Further, on BCLXL WT, the “TR_FRET EKI BCLxL/WT selectivty ratio” value is reported as 118.0. Moreover, the “TR_FRET EKI G101V/WT selectivty ratio” value in the test on BCL2 G101V [2] came out at 79.5.
As to `Cc1nn(C)cc1N(C(=O)c1cc(-c2cc3c(cc2C(=O)N2Cc4ccccc4C[C@H]2C)CN(C(=O)Cc2ccc(OCCN(C)C)cc2F)CC3)n(C)c1C)c1ccccc1` [Example 222, 5-[2-[2-[4-[2-(dimethylamino)ethoxy]-2-fluoro-phenyl]acetyl]-7-[(3R)-3-methyl-3,4-dihydro-1H-isoquinoline-2-carbonyl]-3,4-dihydro-1H-isoquinolin-6-yl]-N-(1,3-dimethylpyrazol-4-yl)-1,2-dimethyl-N-phenyl-pyrrole-3-carboxamide], the Ki on BCL2 WT turned out to be 0.09 nM; at BCL2 D103Y it was 0.19 nM; on BCLXL WT, 12.5 nM; on BCL2 G101V [1] it was 6.3 nM. Further, the IC50 with KMS-12-PE Bcl-2 WT was determined as 0.055 µM. In addition, the “TR_FRET EKI BCLxL/WT selectivty ratio” value on BCLXL WT is listed as 138.9. In the test on BCL2 G101V [2], the “TR_FRET EKI G101V/WT selectivty ratio” value is 69.6.
